Data taken from article PMC10866072, “Design, synthesis, molecular modelling and biological evaluation of novel 6-amino-5-cyano-2-thiopyrimidine derivatives as potent anticancer agents against leukemia and apoptotic inducers” (Journal of Enzyme Inhibition and Medicinal Chemistry, 2024).
Where two headings read alike, the source gives them in different places.

Tests used:
[1] = test system: OVCAR-4; assay type: cell-based
[2] = test system: SK-OV-3; assay type: cell-based
[3] = test system: HL60 cells; test: Annexin V-FITC/PI apoptosis and necrosis assay; assay type: cell-based, human; conditions: HL60, 48 h treatment
Experimental: (§1) For more assessment of compound 1c, apoptosis assay was performed using annexin V-FITC Apoptosis detection kit (Biovision, cat#: K101-25) followed by flow cytometric analysis[92]^,[93]. Briefly, HL60 and leukaemia SR cells were cultured under optimum conditions followed by compound I c treatment for 48 h. then, washed in PBS, centrifuged, and resuspended in 500 µl of 1 x binding buffer. Moreover, 5 µl of annexin V-FITC, and 5 µl of propidium iodide were added and incubated in dark for 5 min. Finally, apoptotic cells were detected using flow cytometer as well as PI staining by emission signal detector. FACS Calibur flow cytometer (Becton Dickinson Biosciences) was used to analyse the cells’ apoptosis.

[4] = test system: leukaemia SR cells; test: Annexin V-FITC/PI apoptosis and necrosis assay; assay type: cell-based, human; conditions: 48 h treatment
Experimental: as §1

[5] = test system: leukaemia cell lines; test: NCI-60 five-dose, subpanel
Excerpt: Furthermore, the average sensitivity of all cell lines to the compound is termed as the full panel mean graph midpoints (MG-MID). The complete panel mean graph midpoints refers to the average sensitivity of all cell lines to the chemical (MG-MID). A measure of a compound’s selectivity for a given cell line is the ratio created by dividing the full panel mean graph midpoints (MG-MID) concentration by the individual subpanel MG-MID concentrations (obtained as the average sensitivity of all the cell lines in a given subpanel to the test compound).
(§2) Assessment of selectivity of a compound depends on the ratio obtained by dividing the full panel MID ^a by their individual subpanel MID ^b (µM) where MID^a is the average sensitivity of all cell lines towards the test agent (µM).

[6] = test system: Breast cancer cell lines; test: NCI-60 five-dose, subpanel
Excerpt: A measure of a compound’s selectivity for a given cell line is the ratio created by dividing the full panel mean graph midpoints (MG-MID) concentration by the individual subpanel MG-MID concentrations (obtained as the average sensitivity of all the cell lines in a given subpanel to the test compound).
as §2

[7] = Homo sapiens, one dose 10^-5 M, 48 h
[8] = Homo sapiens, read-out: GI50 Subpanel MID^b

## N#Cc1c(N)nc(S)nc1-c1ccc(Cl)cc1Cl [Compound 1c, 4-Amino-6–(2,4-dichlorophenyl)-2-mercaptopyrimidine-5-carbonitrile]
[1]; Homo sapiens, five-dose
  GI50: 32 µM
[1]; Homo sapiens, five-dose, read-out: LC50 (the source's name)
  CC50: > 100 µM
[1]; [7]
  % growth at 10 µM: 81.2%
[1]; five-dose
  TGI: >100 µM
[2]; Homo sapiens, five-dose
  GI50: 26.3 µM
  LC50: > 100 µM
[2]; [7]
  % growth at 10 µM: 126%
[2]; five-dose
  TGI: 62.60 µM
[3]
  early apoptosis: 23.79%
  late apoptosis: 9.89%
  necrosis percentage: 3.41%
[4]
  early apoptosis: 14.97%
  late apoptosis: 23.02%
  necrosis percentage: 4.72%
[5]; [8]
  GI50: 0.33 µM
[5]; Homo sapiens, read-out: GI50 range, leukaemia cell lines
  GI50: 0.08 to 0.7 µM
[5]; Homo sapiens, read-out: LC50, leukaemia
  CC50: > 100 µM
[5]; leukaemia
  Selectivity ratio (full panel MID^a / subpanel MID^b, GI50 level): 39
[6]; [8]
  GI50: 11.4 µM
[6]; breast cancer
  Selectivity ratio (full panel MID^a / subpanel MID^b, GI50 level): 1.13
